Assay results: patent US11136367B2, “Multi-level specific targeting of cancer cells” (Wake Forest University Health Sciences, priority 2010, dated 2021)

Tests used:
[1] = system: LN229 cells, very low expressors of IL-13Rα2; experiment: Localization of biotin-labeled proteins in LN229 cells; type: cell-based, Human; details: 24 hr.
Description: (§1) 12,500 U-251 MG GBM cells were plated on coverslips per well in a 24-well plate. After 24 hr., 1 μM/well of biotin-labeled proteins was added onto the U-251 MG cells for 15 min, 4, 8 and 24 hr. After the incubations, the cells were fixed with 4% paraformaldehyde (Ted Pella, Redding, Calif.) for 15 mins at 37° C. and washed with PBS 4× times. The cells were then permeabilized with 0.1% Triton-X-100/0.2% BSA-PBS for 10 min at RT. After permeabilization, the cells were washed 3 times with 1×PBS. After washings, Tyramide signal amplification kit (Invitrogen, Carlsbad, Calif.) using Alexa fluor 488 dyes and HR.P-streptavidin was carried out as per manufacturer's instructions. Topro-3 iodide (Invitrogen, Carlsbad, Calif.) was added at a concentration of 1:1000 dilution of the 1 mM stock to stain the cell nuclei. After the tyramide staining, wells were washed and mounted with gel mount (Biomeda, Foster City, Calif.) and observed with LSM 510 Zeiss Confocal Microscope (Cellular Imaging Core, Comprehensive Cancer Center, Wake Forest University) and the images processed using Zeiss LSM Image Browser (version 4.2).
We carried out identical experiments with biotin-labeled IL-13.E13K-D2-NLS in LN229 cells, very low expressors of IL-13Rα2.

[2] = target: T1, IL-13Rα2 receptor on GBM cells (U-251 MG) (Homo sapiens, UniProt Q14627); experiment: Colorimetric MTS/PMS cell viability assay: neutralization of IL-13.E13K-PE38QQR cytotoxicity (competition for receptor); type: cell-based
T1 construct: endogenous in cells; host or cells: U-251 MG human glioblastoma cells (ATCC)
T1 sequence (Q14627 27-380): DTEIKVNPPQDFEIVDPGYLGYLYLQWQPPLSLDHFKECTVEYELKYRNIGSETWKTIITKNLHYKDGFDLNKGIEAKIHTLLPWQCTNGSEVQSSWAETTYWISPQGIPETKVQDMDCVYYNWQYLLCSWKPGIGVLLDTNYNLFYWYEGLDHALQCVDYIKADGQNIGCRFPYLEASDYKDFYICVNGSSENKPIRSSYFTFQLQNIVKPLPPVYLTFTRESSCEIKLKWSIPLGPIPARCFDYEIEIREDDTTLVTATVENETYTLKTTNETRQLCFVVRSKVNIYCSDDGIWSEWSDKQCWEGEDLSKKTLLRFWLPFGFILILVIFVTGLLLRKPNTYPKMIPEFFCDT
Description: 1× 10^3 U-251 MG cells were plated per well in quadruplicates for each concentration to be tested. IL-13.E13K-PE38QQR is an IL-13Rα2 based cytotoxin against GBM (24). After 24 hours incubation at […] for the cells to attach, a fixed concentration (i.e. 1 μM) of the IL13.E13K-D2-NLS and other purified proteins were added and incubated at 37° C. for 1 hr. After 1 hr. incubation, increasing concentrations of the IL-13.E13K-PE38QQR ranging from 0.1 to 100 ng/ml was added and the plate was incubated for 48 hr. Cells treated with cyclohexamide and just the cytotoxins were used as controls. After 48 hr., cell viability was measured using the MTS [3-(4,5-dimethylthiazol-2-yl)-543-carboxymethoxyphenyl)-2-(4-sulfophenyl)-2H-tetrazolium]/PMS [phenazine methosulfate] dye (Promega, Madison, Wis.) as per the manufacturer's instructions. The absorbance from the assay was measured at 490 nm using the plate reader Spectra max 340 PC (Molecular Devices, Sunnyvale, Calif.) and data was plotted as percentage of control versus concentration of the toxin used.
To this end, we carried out a cell-viability assay in which these recombinant proteins bound to the IL-13Rα2 receptor and protected against cytotoxic action of IL-13.E13K-PE38QQR. […]

[3] = system: G48a GBM cells, which over-express IL-13Rα2; experiment: Localization of biotin-conjugated proteins in G48a GBM cells; type: cell-based
Description: as §1, with “After 24 hr., 1 μM/well of biotin-labeled proteins was added onto the U-251 MG cells for 15 min, 4, 8 and 24 hr.” left out
We repeated the above experiments in another GBM cell line, G48a (13), which over-expresses IL-13Rα2. We obtained similar results as with the U-251 MG cells.

[4] = system: IL-13Rα2 positive U-251 MG cells; experiment: Localization of biotin-conjugated proteins, tyramide signal amplification, confocal microscopy; type: cell-based, Human
Description: Biotin-XX microscale protein labeling kit (Invitrogen, Carlsbad, Calif.) was used to label the proteins as per the manufacturer's instructions. A different molar ratio of 12, 8 or 4 biotin-dye to the proteins was used. The biotin-labeled proteins were run on a gel and a western blot carried out using streptavidin-HR.P (Pierce, Rockford, Ill.) to detect for biotin-labeled proteins. The number of Biotin molecules attached to the proteins was determined by the Biofluoreporter assay kit (Invitrogen) as per the manufacturer's guidelines.
12,500 U-251 MG GBM cells were plated on coverslips per well in a 24-well plate. […] After the incubations, the cells were fixed with 4% paraformaldehyde (Ted Pella, Redding, Calif.) for 15 mins at 37° C. and washed with PBS 4× times. The cells were then permeabilized with 0.1% Triton-X-100/0.2% BSA-PBS for 10 min at RT. After permeabilization, the cells were washed 3 times with 1×PBS. After washings, Tyramide signal amplification kit (Invitrogen, Carlsbad, Calif.) using Alexa fluor 488 dyes and HR.P-streptavidin was carried out as per manufacturer's instructions. Topro-3 iodide (Invitrogen, Carlsbad, Calif.) was added at a concentration of 1:1000 dilution of the 1 mM stock to stain the cell nuclei. […]

IL-13.E13K
cytosolic or perinuclear localization [1]: no cytosolic or perinuclear localization | protection against cytotoxic action of IL-13.E13K-PE38QQR (competition for IL-13Rα2) ([2]; U-251 MG cells, 1 μM protein 1 hr before 0.1 to 100 ng/ml cytotoxin, 48 hr): blocked the action of the cytotoxin | binding of biotin-conjugated proteins to IL-13Rα2 on GBM cells ([2]; biotin-conjugated proteins): bind to the IL-13Rα2 | nuclear localization ([3]; any of the time-points): not found to have any nuclear localization | subcellular localization ([3]; biotin label, 4, 8 and 24 hr.): cytosolic/perinuclear localization | subcellular localization ([3]; biotin label, 5 min): cell membrane binding | subcellular localization ([4]; biotin label, 8, 4 hr and 5 min, data not shown): demonstrate the results observed at 24 hr | subcellular localization ([4]; biotin label, 24 hr.): accumulated mainly in the peri-nuclear region
